Experimental data from ChEMBL document CHEMBL4265896, “Design and synthesis of potent RSK inhibitors” (Bioorg Med Chem Lett, 2018).
≈ marks a conversion by molar mass, not a printed value.

What was measured:
[1] = target: T1, Ribosomal protein S6 kinase alpha-3 (Homo sapiens, UniProt P51812); assay: Inhibition of RSK2 (unknown origin) assessed as reduction in YB1 […] phosphorylation
[2] = target: T1, Ribosomal protein S6 kinase alpha-3; assay: Inhibition of RSK2 (unknown origin)
[3] = Solubility of the compound in PBS buffer of pH 7.0; assay type: physicochemical
[4] = target: Proto-oncogene tyrosine-protein kinase receptor Ret (Homo sapiens, UniProt P07949); assay: Inhibition of RET (unknown origin)
[5] = target: Tyrosine-protein kinase JAK2 (Homo sapiens, UniProt O60674); assay: Inhibition of JAK2 (unknown origin)
[6] = target: T2, Tyrosine-protein kinase receptor UFO (Homo sapiens, UniProt P30530); assay: Inhibition of AXL (unknown origin)
T2 sequence (P30530 whole entry): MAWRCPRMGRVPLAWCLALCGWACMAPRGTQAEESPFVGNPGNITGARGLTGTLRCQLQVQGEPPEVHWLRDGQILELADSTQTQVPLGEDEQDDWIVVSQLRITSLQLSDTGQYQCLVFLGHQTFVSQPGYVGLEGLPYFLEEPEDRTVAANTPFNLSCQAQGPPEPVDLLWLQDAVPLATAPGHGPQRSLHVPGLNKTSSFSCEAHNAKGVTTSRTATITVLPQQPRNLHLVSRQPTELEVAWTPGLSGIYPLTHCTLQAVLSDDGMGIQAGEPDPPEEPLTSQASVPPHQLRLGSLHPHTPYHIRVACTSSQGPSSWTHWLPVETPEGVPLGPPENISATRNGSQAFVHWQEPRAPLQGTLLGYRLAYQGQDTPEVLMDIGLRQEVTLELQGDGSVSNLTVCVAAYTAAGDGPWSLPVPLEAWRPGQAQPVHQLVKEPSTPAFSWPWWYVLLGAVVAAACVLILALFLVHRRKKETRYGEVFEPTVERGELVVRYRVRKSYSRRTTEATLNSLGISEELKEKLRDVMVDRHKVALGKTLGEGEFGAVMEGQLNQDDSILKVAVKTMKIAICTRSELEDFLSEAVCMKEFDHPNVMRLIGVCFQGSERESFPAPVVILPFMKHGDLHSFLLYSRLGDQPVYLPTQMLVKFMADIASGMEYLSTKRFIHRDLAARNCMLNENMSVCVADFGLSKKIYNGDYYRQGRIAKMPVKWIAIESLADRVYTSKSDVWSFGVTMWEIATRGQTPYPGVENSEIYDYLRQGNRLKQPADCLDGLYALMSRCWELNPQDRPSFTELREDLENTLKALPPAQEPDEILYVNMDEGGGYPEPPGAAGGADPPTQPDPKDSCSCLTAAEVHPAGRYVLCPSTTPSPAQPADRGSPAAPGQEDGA

[7] = target: Fibroblast growth factor receptor 2 (Homo sapiens, UniProt P21802); assay: Inhibition of FGFR2 (unknown origin)
Sequence of Fibroblast growth factor receptor 2 (P21802 whole entry): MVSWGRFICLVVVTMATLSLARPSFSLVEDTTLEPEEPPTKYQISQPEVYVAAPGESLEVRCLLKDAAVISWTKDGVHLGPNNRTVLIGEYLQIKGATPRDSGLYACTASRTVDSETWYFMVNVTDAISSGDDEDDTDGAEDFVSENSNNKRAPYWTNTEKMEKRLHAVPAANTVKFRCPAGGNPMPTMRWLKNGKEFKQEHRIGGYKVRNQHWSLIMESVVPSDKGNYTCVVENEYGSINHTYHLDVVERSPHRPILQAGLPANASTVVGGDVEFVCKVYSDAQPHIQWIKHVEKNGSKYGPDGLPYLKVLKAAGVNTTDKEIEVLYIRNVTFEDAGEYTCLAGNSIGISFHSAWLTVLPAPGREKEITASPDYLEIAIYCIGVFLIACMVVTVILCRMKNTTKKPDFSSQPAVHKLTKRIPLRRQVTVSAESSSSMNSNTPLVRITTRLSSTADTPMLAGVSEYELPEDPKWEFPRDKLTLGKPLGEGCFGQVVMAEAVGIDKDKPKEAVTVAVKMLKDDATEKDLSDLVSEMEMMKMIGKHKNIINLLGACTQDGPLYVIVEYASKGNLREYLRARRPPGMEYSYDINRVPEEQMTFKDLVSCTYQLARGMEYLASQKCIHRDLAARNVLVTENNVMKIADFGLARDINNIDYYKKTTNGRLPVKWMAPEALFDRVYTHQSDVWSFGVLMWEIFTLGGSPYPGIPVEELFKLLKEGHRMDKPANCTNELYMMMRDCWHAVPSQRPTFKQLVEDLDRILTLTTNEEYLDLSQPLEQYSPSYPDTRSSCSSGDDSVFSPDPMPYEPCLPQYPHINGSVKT

[8] = target: Tyrosine-protein kinase JAK1 (Homo sapiens, UniProt P23458); assay: Inhibition of JAK1 (unknown origin)
Sequence of Tyrosine-protein kinase JAK1 (P23458 whole entry): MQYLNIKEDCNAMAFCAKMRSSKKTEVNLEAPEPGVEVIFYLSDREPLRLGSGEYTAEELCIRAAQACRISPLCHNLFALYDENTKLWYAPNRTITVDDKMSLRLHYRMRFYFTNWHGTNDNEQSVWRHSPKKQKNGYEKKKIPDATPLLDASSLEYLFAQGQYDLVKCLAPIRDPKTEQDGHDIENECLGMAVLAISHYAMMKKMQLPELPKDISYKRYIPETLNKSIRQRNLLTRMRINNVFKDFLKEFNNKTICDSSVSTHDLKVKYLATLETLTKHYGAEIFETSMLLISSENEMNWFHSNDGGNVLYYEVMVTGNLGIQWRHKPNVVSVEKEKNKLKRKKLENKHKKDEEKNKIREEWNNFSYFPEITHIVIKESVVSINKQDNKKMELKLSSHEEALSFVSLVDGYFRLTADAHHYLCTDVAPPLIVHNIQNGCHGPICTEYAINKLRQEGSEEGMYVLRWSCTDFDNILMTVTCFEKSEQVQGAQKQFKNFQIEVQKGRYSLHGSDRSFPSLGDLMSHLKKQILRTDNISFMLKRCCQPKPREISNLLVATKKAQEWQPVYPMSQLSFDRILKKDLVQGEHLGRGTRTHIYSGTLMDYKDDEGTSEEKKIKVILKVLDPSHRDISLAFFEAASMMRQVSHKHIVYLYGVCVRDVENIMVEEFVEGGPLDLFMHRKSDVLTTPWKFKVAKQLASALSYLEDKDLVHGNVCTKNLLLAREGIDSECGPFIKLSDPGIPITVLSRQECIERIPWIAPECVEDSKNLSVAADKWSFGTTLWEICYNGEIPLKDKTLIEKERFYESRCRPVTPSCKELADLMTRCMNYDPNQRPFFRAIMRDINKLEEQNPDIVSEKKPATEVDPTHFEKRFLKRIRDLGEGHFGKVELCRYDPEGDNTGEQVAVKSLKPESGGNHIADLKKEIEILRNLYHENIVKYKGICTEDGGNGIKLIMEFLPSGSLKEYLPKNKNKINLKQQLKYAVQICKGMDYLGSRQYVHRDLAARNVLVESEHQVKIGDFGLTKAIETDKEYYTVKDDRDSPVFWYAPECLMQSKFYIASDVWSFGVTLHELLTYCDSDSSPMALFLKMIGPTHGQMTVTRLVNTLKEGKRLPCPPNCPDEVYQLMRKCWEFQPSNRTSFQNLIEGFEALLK

[9] = target: T3, Receptor-type tyrosine-protein kinase FLT3 (Homo sapiens, UniProt P36888); assay: Inhibition of FLT3 (unknown origin)
T3 sequence (P36888 whole entry): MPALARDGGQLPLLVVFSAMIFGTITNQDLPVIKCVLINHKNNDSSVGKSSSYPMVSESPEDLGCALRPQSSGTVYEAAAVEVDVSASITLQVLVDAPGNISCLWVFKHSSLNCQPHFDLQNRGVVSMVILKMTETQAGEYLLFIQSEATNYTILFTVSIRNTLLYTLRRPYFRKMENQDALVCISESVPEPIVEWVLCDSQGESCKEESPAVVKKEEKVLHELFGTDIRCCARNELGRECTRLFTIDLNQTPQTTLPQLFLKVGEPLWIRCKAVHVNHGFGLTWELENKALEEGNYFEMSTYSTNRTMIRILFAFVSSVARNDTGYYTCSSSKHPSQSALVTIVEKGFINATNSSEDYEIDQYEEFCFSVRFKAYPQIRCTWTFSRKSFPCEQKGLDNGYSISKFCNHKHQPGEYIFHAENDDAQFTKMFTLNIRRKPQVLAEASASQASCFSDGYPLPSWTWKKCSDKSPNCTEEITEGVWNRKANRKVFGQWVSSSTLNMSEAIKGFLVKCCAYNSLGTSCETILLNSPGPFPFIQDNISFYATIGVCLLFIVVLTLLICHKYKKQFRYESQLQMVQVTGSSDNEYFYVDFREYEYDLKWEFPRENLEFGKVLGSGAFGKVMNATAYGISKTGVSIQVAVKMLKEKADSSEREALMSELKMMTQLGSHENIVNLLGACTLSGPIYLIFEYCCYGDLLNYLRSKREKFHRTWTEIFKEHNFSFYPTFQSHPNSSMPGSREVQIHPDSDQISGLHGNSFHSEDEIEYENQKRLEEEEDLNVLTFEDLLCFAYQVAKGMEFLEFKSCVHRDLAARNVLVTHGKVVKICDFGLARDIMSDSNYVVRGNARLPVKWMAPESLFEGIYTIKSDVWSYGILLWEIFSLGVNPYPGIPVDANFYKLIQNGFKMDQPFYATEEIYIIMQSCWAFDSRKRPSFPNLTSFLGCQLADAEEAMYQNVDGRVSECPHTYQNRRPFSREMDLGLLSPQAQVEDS

[10] = Efflux ratio of permeability of the compound in human Caco2 cells; assay type: ADME, cell-based; conditions: Caco-2
[11] = target: Vascular endothelial growth factor receptor 2 (Homo sapiens, UniProt P35968); assay: Inhibition of KDR (unknown origin)
[12] = target: Ribosomal protein S6 kinase beta-1 (Homo sapiens, UniProt P23443); assay: Inhibition of RPS6KB1 (unknown origin)
Sequence of Ribosomal protein S6 kinase beta-1 (P23443 whole entry): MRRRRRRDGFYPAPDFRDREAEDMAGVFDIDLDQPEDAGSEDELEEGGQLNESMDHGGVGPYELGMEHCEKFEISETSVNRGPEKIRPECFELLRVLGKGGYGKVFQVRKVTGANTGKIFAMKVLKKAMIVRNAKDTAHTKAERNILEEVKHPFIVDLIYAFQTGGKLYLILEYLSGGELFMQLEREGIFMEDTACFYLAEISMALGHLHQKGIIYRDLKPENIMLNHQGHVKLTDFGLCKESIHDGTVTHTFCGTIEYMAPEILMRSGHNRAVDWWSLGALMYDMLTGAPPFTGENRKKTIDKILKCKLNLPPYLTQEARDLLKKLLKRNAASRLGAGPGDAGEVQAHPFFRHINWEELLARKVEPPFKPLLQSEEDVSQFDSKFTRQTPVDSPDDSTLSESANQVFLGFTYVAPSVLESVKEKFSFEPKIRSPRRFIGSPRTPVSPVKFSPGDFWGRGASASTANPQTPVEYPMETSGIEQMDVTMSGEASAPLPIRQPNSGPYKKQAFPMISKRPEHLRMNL

[13] = target: Fibroblast growth factor receptor 1 (Homo sapiens, UniProt P11362); assay: Inhibition of FGFR1 (unknown origin)
Sequence of Fibroblast growth factor receptor 1 (P11362 whole entry): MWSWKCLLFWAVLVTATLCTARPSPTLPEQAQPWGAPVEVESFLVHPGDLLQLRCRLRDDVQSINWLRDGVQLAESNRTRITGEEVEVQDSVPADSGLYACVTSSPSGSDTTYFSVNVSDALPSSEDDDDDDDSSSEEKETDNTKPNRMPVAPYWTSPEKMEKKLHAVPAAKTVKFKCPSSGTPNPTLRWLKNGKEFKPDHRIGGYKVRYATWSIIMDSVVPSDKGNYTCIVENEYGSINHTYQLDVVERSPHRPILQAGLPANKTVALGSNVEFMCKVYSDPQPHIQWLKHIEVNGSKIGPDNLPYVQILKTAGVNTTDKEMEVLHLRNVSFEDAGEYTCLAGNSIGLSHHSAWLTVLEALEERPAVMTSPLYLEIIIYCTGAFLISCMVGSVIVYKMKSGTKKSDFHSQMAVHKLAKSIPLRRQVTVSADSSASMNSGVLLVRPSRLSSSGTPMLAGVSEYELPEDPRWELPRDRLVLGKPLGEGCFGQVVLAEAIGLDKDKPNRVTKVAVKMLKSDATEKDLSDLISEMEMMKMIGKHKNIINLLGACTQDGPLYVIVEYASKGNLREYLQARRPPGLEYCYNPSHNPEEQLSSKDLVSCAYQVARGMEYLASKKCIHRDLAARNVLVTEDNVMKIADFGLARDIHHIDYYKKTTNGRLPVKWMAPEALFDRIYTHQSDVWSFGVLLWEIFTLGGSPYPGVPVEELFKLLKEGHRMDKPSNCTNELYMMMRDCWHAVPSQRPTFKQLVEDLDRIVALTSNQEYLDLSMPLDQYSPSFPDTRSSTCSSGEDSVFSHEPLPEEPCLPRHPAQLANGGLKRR

T1 sequence (P51812 whole entry): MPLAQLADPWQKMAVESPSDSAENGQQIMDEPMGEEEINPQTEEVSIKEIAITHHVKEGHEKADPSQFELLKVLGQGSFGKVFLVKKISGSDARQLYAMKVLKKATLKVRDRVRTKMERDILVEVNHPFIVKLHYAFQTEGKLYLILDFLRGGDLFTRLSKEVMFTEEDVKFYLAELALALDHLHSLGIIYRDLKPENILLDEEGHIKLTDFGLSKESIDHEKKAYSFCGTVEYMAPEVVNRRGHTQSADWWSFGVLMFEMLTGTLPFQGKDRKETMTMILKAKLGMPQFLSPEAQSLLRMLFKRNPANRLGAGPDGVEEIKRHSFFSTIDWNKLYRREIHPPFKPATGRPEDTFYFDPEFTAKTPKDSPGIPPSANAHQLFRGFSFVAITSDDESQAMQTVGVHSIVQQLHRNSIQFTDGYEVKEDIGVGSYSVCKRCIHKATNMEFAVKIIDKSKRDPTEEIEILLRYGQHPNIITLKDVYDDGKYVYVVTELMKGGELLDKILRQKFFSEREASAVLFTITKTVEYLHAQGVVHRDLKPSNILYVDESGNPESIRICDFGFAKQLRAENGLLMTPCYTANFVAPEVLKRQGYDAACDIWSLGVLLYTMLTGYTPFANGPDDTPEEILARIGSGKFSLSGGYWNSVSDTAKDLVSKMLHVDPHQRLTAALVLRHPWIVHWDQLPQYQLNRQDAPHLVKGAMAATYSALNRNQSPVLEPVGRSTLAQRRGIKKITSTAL

IC50 [1]	IC50 [2]	Structure (SMILES)	also measured
2800 nM	20 nM	Oc1ccc(-c2cn[nH]c2-c2ccc(O)cc2)cc1	–
340 nM	–	CN1CCN(c2ccc(-c3ccncc3-c3cc(F)c(O)c(F)c3)cc2)CC1	–
210 nM	–	Oc1c(F)cc(-c2cnccc2-c2ccc(N3CCOCC3)cc2)cc1F	–
> 20000 nM	500 nM	COc1c(F)cc(-c2cnc3[nH]ccc3c2-c2ccc(N3CCN(C)CC3)cc2)cc1F	–
18100 nM	800 nM	CN1CCN(c2ccc(-c3c(-c4ccc(C(F)F)cc4)cnc4[nH]ccc34)cc2)CC1	–
50 nM	2 nM	Oc1c(F)cc(-c2cnc3[nH]ccc3c2-c2ccc(N3CCOCC3)cc2)cc1F	solubility [3]: < 0.22 µg/mL
2400 nM	240 nM	CN1CCN(c2ccc(-c3c(-c4cn[nH]c4)cnc4[nH]ccc34)cc2)CC1	–
6000 nM	38 nM	CN1CCN(c2ccc(-c3c(-c4cc(F)cc(F)c4)cnc4[nH]ccc34)cc2)CC1	–
> 20000 nM	1900 nM	CN1CCN(c2ccc(-c3c(-c4ccc(F)cc4)cnc4[nH]ccc34)cc2)CC1	–
> 20000 nM	1100 nM	CN1CCN(c2ccc(-c3c(-c4ccnc(F)c4)cnc4[nH]ccc34)cc2)CC1	–
7200 nM	810 nM	CN1CCN(c2ccc(-c3c(-c4ccc(N)nc4)cnc4[nH]ccc34)cc2)CC1	–
232 nM	2 nM	Cc1ccc(-c2c(-c3cc(F)c(O)c(F)c3)cnc3[nH]ccc23)cc1	–
54 nM	0.3 nM	CN1CCN(c2ccc(-c3c(-c4cc(F)c(O)c(F)c4)cnc4[nH]ccc34)cc2)CC1	IC50 [4]: < 1000 nM; IC50 [5]: < 1000 nM; solubility [3]: 10.3 µg/mL (≈ 24.5 µM); IC50 [6]: < 1000 nM; IC50 [7]: < 1000 nM; IC50 [8]: < 1000 nM; IC50 [9]: 120 nM; efflux ratio [10]: 0.8; IC50 [11]: < 1000 nM; IC50 [12]: 120 nM; IC50 [13]: < 1000 nM
